Laboratory results published in patent US6797255B1, “Methods and compositions for enhancing magnetic resonance imaging” (Mallinckrodt Inc., priority 1985, dated 2004).

How the values were obtained:
Swiss CF-1 mice = experiment: Acute intravenous toxicity determination; assay type: in vivo; conditions: for LD50: acute, intravenous, Trihydrate
Method: Dihydrogen Bis(N-[N′-(2,6-dimethylphenyl)carbamoylmethyl]iminidiaceto)manganese(II) trihydrate was dissolved in 0.9% sodium chloride Inj. USP as a 1.25% solution.
Male and female Swiss CF-1 mice with a body weight range of 17.4 to 24.2 grams were used. The mice were housed according to standard procedures and individually marked with picric acid.
The dose schedule was as follows:
Measured single doses were injected into the lateral tail vein at a rate of 1 ml/min. The animals were observed immediately after dosing and during the 7-day observation period for pharmacotoxic reactions. Recording of terminal body weights and general necropsy-of the thoracic and abdominal organs was performed after 7 days.

rabbits = experiment: Tissue T1 and T2 relaxation times 45 min after intravenous injection (time course); assay type: in vivo; conditions: for T1 relaxation time / T2 relaxation time: 45 min after 0.03 mmol/kg i.v., 10 mHz RADX
Method: All experiments employing the complex dihydrogen bis(N-[N′-(2,6-dimethylphenyl)carbamoylmethyl]iminodiaceto)manganese (II) trihydrate were conducted following intravenous administration to rabbits. A 10 mM solution of the complex was used in these studies. Rabbits were anesthetized with ketamine/xylazine prior to treatment. The results given were obtained with a 10 mHz RADX proton spin analyzer.
A second study was performed in two rabbits killed 45 min after intravenous injection of 0.03 mmol of the complex/Kg to examine the time course of T1 and T2relaxation enhancement.

Cc1cccc(C)c1NC(=O)CN(CC(=O)[O-])CC(=O)O.Cc1cccc(C)c1NC(=O)CN(CC(=O)[O-])CC(=O)O.O.O.O.[Mn+2] [Example 2]
Body weight change (Swiss CF-1 mice; 0.360 mmol/kg i.v., after 7 days): +1.75 g | Mortalities/number tested (Swiss CF-1 mice; 0.360 mmol/kg i.v., day 1 after dosing): 0/4 | Mortalities/number tested (Swiss CF-1 mice; 0.360 mmol/kg i.v., day 2 after dosing): 0/4 | Mortalities/number tested (Swiss CF-1 mice; 0.360 mmol/kg i.v., day 3 after dosing): 0/4 | Mortalities/number tested (Swiss CF-1 mice; 0.360 mmol/kg i.v., day 4 after dosing): 0/4 | Mortalities/number tested (Swiss CF-1 mice; 0.360 mmol/kg i.v., day 5 after dosing): 0/4 | Mortalities/number tested (Swiss CF-1 mice; 0.360 mmol/kg i.v., day 6 after dosing): 0/4 | Mortalities/number tested (Swiss CF-1 mice; 0.360 mmol/kg i.v., day 7 after dosing): 0/4 | Mortalities/number tested (Swiss CF-1 mice; 0.360 mmol/kg i.v., immediate): 0/4 | Body weight change (Swiss CF-1 mice; 0.540 mmol/kg i.v., after 7 days): +2.0 g | Mortalities/number tested (Swiss CF-1 mice; 0.540 mmol/kg i.v., day 1 after dosing): 2/4 | Mortalities/number tested (Swiss CF-1 mice; 0.540 mmol/kg i.v., day 2 after dosing): 2/4 | Mortalities/number tested (Swiss CF-1 mice; 0.540 mmol/kg i.v., day 3 after dosing): 2/4 | Mortalities/number tested (Swiss CF-1 mice; 0.540 mmol/kg i.v., day 4 after dosing): 2/4 | Mortalities/number tested (Swiss CF-1 mice; 0.540 mmol/kg i.v., day 5 after dosing): 2/4 | Mortalities/number tested (Swiss CF-1 mice; 0.540 mmol/kg i.v., day 6 after dosing): 2/4 | Mortalities/number tested (Swiss CF-1 mice; 0.540 mmol/kg i.v., day 7 after dosing): 2/4 | Mortalities/number tested (Swiss CF-1 mice; 0.540 mmol/kg i.v., immediate): 2/4 | Body weight change (Swiss CF-1 mice; 0.630 mmol/kg i.v., after 7 days): +1.6 g | Mortalities/number tested (Swiss CF-1 mice; 0.630 mmol/kg i.v., day 1 after dosing): 3/4 | Mortalities/number tested (Swiss CF-1 mice; 0.630 mmol/kg i.v., day 2 after dosing): 3/4 | Mortalities/number tested (Swiss CF-1 mice; 0.630 mmol/kg i.v., day 3 after dosing): 3/4 | Mortalities/number tested (Swiss CF-1 mice; 0.630 mmol/kg i.v., day 4 after dosing): 3/4 | Mortalities/number tested (Swiss CF-1 mice; 0.630 mmol/kg i.v., day 5 after dosing): 3/4 | Mortalities/number tested (Swiss CF-1 mice; 0.630 mmol/kg i.v., day 6 after dosing): 3/4 | Mortalities/number tested (Swiss CF-1 mice; 0.630 mmol/kg i.v., day 7 after dosing): 3/4 | Mortalities/number tested (Swiss CF-1 mice; 0.630 mmol/kg i.v., immediate): 3/4 | pharmacotoxic reactions immediately after injection (Swiss CF-1 mice; 0.360-0.630 mmol/kg i.v., mice): Mild to severe convulsions occurred in all the animals immediately after injections | pharmacotoxic reactions of surviving animals (Swiss CF-1 mice; 0.360-0.630 mmol/kg i.v., mice): mild to severe depression which was resolved within one hour after dosing | weight gains (Swiss CF-1 mice; 7-day observation): normal | LD50 (Swiss CF-1 mice; mouse, listed as dihydrogen bis(N-[N′-(2,6-dimethylphenyl)carbamoylmethyl]-iminodiaceto)manganese): ~0.5 mmol/kg | LD50 (Swiss CF-1 mice; mouse, listed as dihydrogen bis(N-[N′-(2,6-dimethylphenyl)carbamoylmethyl]iminodiaceto)-manganese): approximately 0.540 mmol/kg | necropsy findings (Swiss CF-1 mice; after 7 days): did not reveal any abnormalities | diagnostic safety ratio (Swiss CF-1 mice; mouse i.v. LD50 vs ED50 for hepatic T1 enhancement): approximately 50 | intravenous toxicity profile (Swiss CF-1 mice; mouse, in vivo, iv): favorable intravenous toxicity profile | tissue T1 relaxation times at 45 min compared with 15 min (rabbits; 0.03 mmol/kg i.v.): decreased to the same extent as noted at 15 min | T1 relaxation time (rabbits; Bladder): 367 ms | T2 relaxation time (rabbits; Bladder): 72 ms | T1 relaxation time (rabbits; Fat): 137 ms | T2 relaxation time (rabbits; Fat): 125 ms | T1 relaxation time (rabbits; Heart): 265 ms | T2 relaxation time (rabbits; Heart): 57 ms | T1 relaxation time (rabbits; Large Intestine): 154 ms | T2 relaxation time (rabbits; Large Intestine): 47 ms | T1 relaxation time (rabbits; Liver): 37 ms | T2 relaxation time (rabbits; Liver): 24 ms | T1 relaxation time (rabbits; Lung): 438 ms | T2 relaxation time (rabbits; Lung): 89 ms | T1 relaxation time (rabbits; Pancreas): 117 ms | T2 relaxation time (rabbits; Pancreas): 75 ms | T1 relaxation time (rabbits; Renal cortex): 143 ms | T2 relaxation time (rabbits; Renal cortex): 57 ms | T1 relaxation time (rabbits; Renal medulla): 244 ms | T2 relaxation time (rabbits; Renal medulla): 91 ms | T1 relaxation time (rabbits; Skeletal muscle): 315 ms | T2 relaxation time (rabbits; Skeletal muscle): 41 ms | T1 relaxation time (rabbits; Small Intestine): 129 ms | T2 relaxation time (rabbits; Small Intestine): 48 ms | T1 relaxation time (rabbits; Spleen): 271 ms | T2 relaxation time (rabbits; Spleen): 71 ms | T1 relaxation time (rabbits; Stomach): 159 ms | T2 relaxation time (rabbits; Stomach): 47 ms
